Legend:
[1] = Conversion Test 1: conversion half life of prodrug to parent compound in rat serum; assay type: in vitro ADME; details: rat serum, 37° C.
Method: (§1) Chloroform solution containing egg yolk lecithin (84 μmole), egg yolk sphingomyelin (36 μmole) and Mitomycin C prodrug ( 6 μmole) obtained in the below-mentioned Example 1 or 2 was poured into a round-bottom flask and evaporated to dryness.
(§2) To this were added sodium cholate (258 mg) and pH 7.4 phosphate buffered saline (hereinafter referred to as PBS) (4.8 ml) and the mixture was agitated to give a clear purple solution.
(§3) Sodium cholate was removed from the solution by the Lipoprep dialyzer (detergent removal apparatus prepared by Diachema Co., Ltd.) to give a liposome suspension containing Mitomycin C prodrug.
(§4) Chloroform solution containing egg yolk lecithin (70 μmole), egg yolk sphingomyelin (30 μmole) and FR900482 substance prodrug (Example 6)(5 μmole) was poured into a round-bottom flask and a liposome suspension containing FR900482 substance prodrug was obtained in a similar manner to that of above-mentioned method.
Above-mentioned two liposome suspensions containing Mitomycin C prodrug were each diluted with PBS at 2.5 times.
The liposome suspension containing FR900482 substance prodrug was diluted with PBS to obtain the drug concentration of 0.5 μmole/ml and was filtered through millex-GV (trademark: prepared by Millipore Co., Ltd.) filter (0.22μ).
(§5) After the liposome suspension and ethanol solution of each prodrug (0.5 ml) were added to mouse, rat or human serum (4.5 ml, 37° C.), samples were taken periodically and the concentration of each prodrug was determined by high-performance liquid chromotography.
(§6) Conversion half lives (t 1/2) of each prodrug to each parent compound in various kinds of serum were calculated by the concentration of each prodrug remaining at each time.

[2] = Conversion Test 1: conversion half life of prodrug to parent compound in mouse serum; assay type: in vitro ADME; details: 37° C.
Method: as §1, §2, §3
as §4, with “method. […]” for “method.”
as §5, §6

[3] = Conversion Test 1: conversion half life of prodrug to parent compound in human serum; assay type: in vitro ADME; details: 37° C.
Method: as §1, §2, §3
as §4, with “method. […]” for “method.”
as §5, §6

[4] = test system: human lung adenocarcinoma A 549; test: Anti tumor test 2: growth inhibition of A 549 under the subrenal capsule of mice; assay type: in vivo; details: Day 14, i.v. liposome preparation; for Inhibition: tumor growth
From the text: (§7) The mixture of chloroform and methanol (3:1 V/V) containing egg yolk lecithin (245 μmole), egg yolk sphingomyelin (105 μmole) and Cyarabine prodrug (Example 8) (87.5 and 157.5 μmole respectively) was taken in a round-bottom flask. Liposome suspensions containing Cytarabine prodrug (Concentration: 10 and 18 μmole/ml respectively) were obtained in a similar manner to that of the above-mentioned method.
A fragment of human lung adenocarcinoma A 549 was implanted under the subrenal capsule of BDF female mouse (8 weeks). Cytarabine aqueous solution (dose: 1000 μmole/kg) and above-mentioned liposome suspension containing Cytarabine prodrug (dose: 100 and 180 μmole/kg respectively)were administered intravenously to the mice at a volume of 0.2 ml per mouse body weight 20 g at Day 1, 5 and 9 after implantation. The tumor volume at Day 14 after implantation was measured and the growth inhibition percent was calculated. (In this test, to clarify the anti tumor effect of each preparation, 17-allyl-1,14-dihydroxy-12-[2-(4-hydroxy-3- methoxycyclohexyl)-1-methylvinyl]-23,25-dimethoxy-13,19,21,27-tetramethyl- 11,28-dioxa-4-azatricyclo[22.3.1.0^4,9 ]octacos-18-ene-2,3,10,16-tetraone as immunosuppressive substance(dose: 32 mg/kg) was administered subcutaneously at Day 1, 2, 5, 7, 9 and 12 after implanation.)

[5] = test system: Mouse leukemia cell L 1210; test: Anti tumor test 1: survival of mice implanted with L 1210 leukemia; assay type: in vivo; details: i.v. liposome suspension; for T/C: mean survival time vs control
From the text: as §7, with “(8:2” for “(3:1”, “Cytarabine” for “Cyarabine”, “262.5” for “157.5”, “roundbottom” for “round-bottom”, “20” for “18”, “method. Mouse leukemia cell L 1210 (10^5 cells) were implanted intraperitoneally into BDF female mice (7 weeks).” for “method.”
After 24 hours after inoculation, Cytarabine aqueous solution (dose: 1000 and 3000 μmole/kg respectively), above-mentioned liposome suspension containing Cytarabine prodrug (dose: 100 and 300 μmole/kg respectively)and aqueous solution of N^4 -behenoyl-1-β-arabinofuranosylcytosine (hereinafter referred to as BHAC) which is a known compound as Cytarabine prodrug and is shown by the following structure (dose: 100 and 300 μmole/kg respectively) were administered intravenously to the mouse at a volume of 0.2 ml or 0.3 ml (in case the administration at the dose of 300 μmole/kg of Cytarabine prodrug) per 20 g of mouse body weight. After the treatment, survival of the mice was recorded. [drawing 9]

in vitro = in vitro ADME; details: rat, serum
Method: The mixture of chloroform and methanol (8:2 v/v) mixture containing egg yolk lecithin (70 μmole), egg yolk sphingomyelin (30 μmole) and Cytarabine prodrug (30 μmole) obtained in the below-mentioned Example 8 was poured into a round-bottom flask and evaporated to dryness. To this were added sodium cholate (53.8 mg) and PBS (5.0 ml) and the mixture was agitated to give a clear colorless solution.
Sodium cholate was removed from the solution by the Lipoprep dialyzer to give liposome suspension containing Cytarabine prodrug.
The liposome suspension was diluted with PBS to obtain the drug concentration of 5 μmole/ml and was filtered successively through polycarbonate membranes(prepared by Nuclepore Co., Ltd.) (0.2, 0.1 and 0.08μ respectively) and then filtered through a millex-GV filter (0.22 μ).
After the above-mentioned liposome suspension and ethanol solution of Cytarabine prodrug (0.08 ml) were added to rat serum (4.0 ml, 37° C.), samples were taken periodically and the concentration of Cytarabine prodrug was determined by high-performance liquid chromatography.
Conversion half lives (t 1/2) of the prodrug to the parent compound were calculated by the concentration of prodrug remaining at each time.

Row | Compound | Half life (t 1/2) ([1]; ethanol solution) | Half life (t 1/2) ([1]; liposome suspension) | Half life (t 1/2) ([2]; ethanol solution) | Half life (t 1/2) ([2]; liposome suspension) | Half life (t 1/2) ([3]; ethanol solution) | Half life (t 1/2) ([3]; liposome suspension) | Tumor volume mean value ± standard error ([4]; 100 μmole/kg at Day 1, 5, 9) | Tumor volume mean value ± standard error ([4]; 180 μmole/kg at Day 1, 5, 9) | Inhibition ([4]; 100 μmole/kg at Day 1, 5, 9) | Inhibition ([4]; 180 μmole/kg at Day 1, 5, 9) | Mean survival time ([5]; 100 μmole/kg) | Mean survival time ([5]; 300 μmole/kg) | T/C ([5]; 100 μmole/kg) | T/C ([5]; 300 μmole/kg) | Half life (t 1/2) (in vitro) | half-life (in vitro; Half life (t 1/2))
1 | 11-[N-(cholest-5-en-3β-oxycarbonyl)glycyl]-4-formyl-6,9-dihydroxy-14- oxa-1,11-diazatetracyclo[7.4.1.0^2,7.0^10,12 ]tetradeca-2,4,6-triene-8-ylmethylcarbamate [Example 6] | 4.0 h | 10.3 h | 2.7 h | 4.6 h | 3.3 h | 9.9 h |  |  |  |  |  |  |  |  |  | 
2 | CC(C)CCC[C@@H](C)[C@H]1CC[C@H]2[C@@H]3CC=C4C[C@@H](OC(=O)NCC(=O)Nc5ccn([C@@H]6O[C@H](CO)[C@@H](O)[C@@H]6O)c(=O)n5)CC[C@]4(C)[C@H]3CC[C@]12C [Example 8, N^4-[N-(cholest-5-en-3β-oxycarbonyl)glycyl]-1-β-D-arabinofuranosylcytosine] |  |  |  |  |  |  | 13.0 ± 3.0 mm^3 | 5.5 ± 1.6 mm^3 | 54.1% | 80.4% | 16.3 ± 0.3 days | 33.3 ± 13.4 days | 181% | 370% | 37.3 h | 22.6 h
